Measurements as given in publication PMC9169222, “Impedance-Based Phenotypic Readout of Transporter Function: A Case for Glutamate Transporters” (Frontiers in Pharmacology, 2022).
Counter-ions that a name gives are not always drawn. Like-named read-outs stand apart in the source and are kept apart here. Marks after values point to notes of the source that are not given here.

Tests used:
[1] = system: EAAT1 / mGluR2 (JumpIn-EAAT1-mGluR2 cells); assay: Impedance-based TRACT assay (xCELLigence) on JumpIn-EAAT1-mGluR2 cells; format: cell-based, human; conditions: for Substrate pEC50 ± SEM (AUC = 0–15 min): JumpIn-EAAT1-mGluR2, +dox
[2] = biological target: T1, EAAT1 / mGluR2 (JumpIn-EAAT1-mGluR2 cells) (Homo sapiens, UniProt P43003); assay: as above; format: cell-based
T1 construct: FLAG-tag (N); expressed in transfected cells; host or cells: Jump In T-REx HEK 293 (JumpIn-EAAT1), transiently transfected with mGluR2 cDNA

[3] = biological target: T2, EAAT2 (JumpIn-EAAT2 cells) (Homo sapiens, UniProt P43004); assay: Impedance-based phenotypic assay (xCELLigence) on JumpIn-EAAT2 cells; format: cell-based; conditions: net AUC 0–120 min, read-out: Substrate pEC50 ± SEM (converted)
T2 construct: expressed in transfected cells; host or cells: Jump In T-REx HEK 293

[4] = biological target: T3, EAAT5 (JumpIn-EAAT5 cells) (Homo sapiens, UniProt O00341); assay: Impedance-based phenotypic assay on JumpIn-EAAT5 cells; format: cell-based; conditions: JumpIn-EAAT5, 1 mM L-glu, p = 0.0032
T3 construct: expressed in transfected cells; host or cells: Jump In T-REx HEK 293
Description: Label-free whole-cell assays, based on cell-induced changes in impedance, were performed using the xCELLigence real-time cell analyzer (RTCA) system (ACEA Biosciences, San Diego, CA, United States) as described previously ([Vlachodimou et al., 2019]; [Sijben et al., 2021a], [2021b]). In short, cells are cultured in medium on gold-plated electrodes in microwell E-plates. Per well impedance is continuously measured at 10 kHz and is converted to the unitless parameter Cell Index (CI) by the following formula: CI=(Zi−Z0)Ω/15Ω where Zi is the impedance at any given time point and Z0 is the baseline impedance measured at the start of each experiment ([Kho et al., 2015]).
Assays were performed at 37°C and 5% CO2 in 96-well PET E-plates in a total volume of 100 µl per well. Prior to cell seeding, the baseline impedance (Z0) was measured in the recording station in 40 µl (two compound additions) or 45 µl (one compound addition) medium in the presence (+) or absence (−) of 1 μg/ml dox. […]
On the day of the experiment, JumpIn-EAAT cells grown to 70–80% confluence were trypsinized (0.25% trypsin in PBS/EDTA), counted and seeded in the E-plate in a volume of 50 μl at 60,000 cells/well. […] Cell growth was recorded overnight for 22 h. […] After stimulation the impedance was measured for at least 2 h. […]
Experimental data was recorded using RTCA Software v2.0 or v2.1.1 (ACEA Biosciences). […]

[5] = biological target: EAAT1 (endogenous, MDA-MB-468 cells) (Homo sapiens, UniProt P43003); assay: Impedance-based phenotypic assay on MDA-MB-468 cells; format: cell-based
Description: MDA-MB-468 cells were cultured as adherent cells in DMEM containing 10% (v/v) FCS, 2 mM Glutamax, 100 IU/ml penicillin and 100 μg/ml streptomycin (culture medium) at 37°C and 5% CO2. Cells were split twice weekly at 1:3–1:4 ratios in 10 cm culture dishes.
In short, cells are cultured in medium on gold-plated electrodes in microwell E-plates.
Assays were performed at 37°C and 5% CO2 in 96-well PET E-plates in a total volume of 100 µl per well. Prior to cell seeding, the baseline impedance (Z0) was measured in the recording station in 40 µl (two compound additions) or 45 µl (one compound addition) medium in the presence (+) or absence (−) of 1 μg/ml dox. All compounds were diluted in phosphate-buffered saline (PBS) and added in 5 µl per addition using a VIAFLO 96 handheld electronic 96 channel pipette (INTEGRA Biosciences, Tokyo, Japan). When DMSO was used as a solvent for a compound, the final amount of DMSO was kept at 0.1% per well and was included in the vehicle (PBS/DMSO). All conditions were tested at two technical replicates per plate.
Experimental data was recorded using RTCA Software v2.0 or v2.1.1 (ACEA Biosciences). In the RTCA Software CI values were normalized to the time point prior to substrate/agonist stimulation resulting in normalized Cell Index (nCI) values. The nCI data were exported and subsequent analyses and data visualizations were done using GraphPad Prism v9 (GraphPad Software, San Diego, CA, United States). In all experiments, nCI values of vehicle-only conditions were subtracted from all other conditions to correct for vehicle-induced, substrate-independent effects. […] The potency values of substrates and inhibitory potencies of EAAT inhibitors were determined by fitting the net AUC data to a sigmoidal concentration-effect curve with a variable slope.

T2 sequence (P43004 whole entry): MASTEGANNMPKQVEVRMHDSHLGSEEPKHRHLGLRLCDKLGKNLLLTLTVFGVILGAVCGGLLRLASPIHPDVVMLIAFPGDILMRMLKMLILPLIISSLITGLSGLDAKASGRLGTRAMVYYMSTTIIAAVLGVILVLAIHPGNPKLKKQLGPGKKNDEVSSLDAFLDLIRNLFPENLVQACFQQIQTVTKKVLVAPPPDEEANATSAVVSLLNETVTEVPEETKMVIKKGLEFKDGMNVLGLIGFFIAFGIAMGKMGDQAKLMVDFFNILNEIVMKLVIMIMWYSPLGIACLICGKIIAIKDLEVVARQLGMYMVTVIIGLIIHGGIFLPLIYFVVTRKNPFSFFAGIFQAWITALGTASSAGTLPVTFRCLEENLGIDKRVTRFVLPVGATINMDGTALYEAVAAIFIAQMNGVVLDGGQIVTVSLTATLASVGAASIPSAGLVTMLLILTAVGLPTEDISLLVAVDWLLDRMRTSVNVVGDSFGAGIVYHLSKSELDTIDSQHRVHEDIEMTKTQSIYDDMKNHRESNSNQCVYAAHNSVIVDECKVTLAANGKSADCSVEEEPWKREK
T3 sequence (O00341 whole entry): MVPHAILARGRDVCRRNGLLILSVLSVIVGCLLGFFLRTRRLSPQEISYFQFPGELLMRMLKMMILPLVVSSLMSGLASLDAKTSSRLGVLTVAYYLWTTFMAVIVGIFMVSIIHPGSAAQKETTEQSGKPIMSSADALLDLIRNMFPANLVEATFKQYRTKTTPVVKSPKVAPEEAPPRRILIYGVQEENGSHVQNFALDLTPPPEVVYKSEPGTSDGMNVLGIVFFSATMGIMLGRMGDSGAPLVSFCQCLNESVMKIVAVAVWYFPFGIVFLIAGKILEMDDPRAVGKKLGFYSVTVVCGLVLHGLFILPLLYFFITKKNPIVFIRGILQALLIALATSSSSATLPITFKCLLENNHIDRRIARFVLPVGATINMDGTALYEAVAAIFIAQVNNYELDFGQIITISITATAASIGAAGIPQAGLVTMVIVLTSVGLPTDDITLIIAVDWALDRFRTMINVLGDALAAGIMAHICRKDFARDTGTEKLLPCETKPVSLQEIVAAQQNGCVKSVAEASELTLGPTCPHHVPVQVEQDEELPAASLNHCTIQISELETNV
T1 sequence (P43003 whole entry, the tested form may be a part): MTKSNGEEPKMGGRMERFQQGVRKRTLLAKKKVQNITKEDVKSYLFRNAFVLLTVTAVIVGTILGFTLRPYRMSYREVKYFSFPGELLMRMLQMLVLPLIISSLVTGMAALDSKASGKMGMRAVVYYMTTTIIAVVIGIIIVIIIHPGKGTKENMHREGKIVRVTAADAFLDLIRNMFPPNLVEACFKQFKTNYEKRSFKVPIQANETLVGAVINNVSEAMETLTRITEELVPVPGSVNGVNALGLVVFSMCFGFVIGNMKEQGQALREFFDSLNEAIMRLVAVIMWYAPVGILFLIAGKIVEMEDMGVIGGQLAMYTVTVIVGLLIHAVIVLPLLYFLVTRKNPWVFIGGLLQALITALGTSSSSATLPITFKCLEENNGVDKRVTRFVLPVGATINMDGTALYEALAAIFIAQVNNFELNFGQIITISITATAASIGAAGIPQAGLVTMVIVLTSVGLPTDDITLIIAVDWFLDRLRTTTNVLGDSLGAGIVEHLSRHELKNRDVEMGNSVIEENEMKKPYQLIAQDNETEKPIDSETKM
EAAT1 (endogenous, MDA-MB-468 cells), sequence (P43003 whole entry): as the sequence (P43003 whole entry, the tested form may be a part) above

`N[C@@H](CCC(=O)O)C(=O)O` [L-glutamate, L-glutamic acid monosodium salt monohydrate] was tested, and the “Substrate pEC50 ± SEM (AUC = 0–15 min)” value ([1]; no inhibitor, net AUC 0–15 min) was less than 3.0, the “Substrate pEC50 ± SEM (AUC = 0–15 min)” value ([1]; pretreated 1 h with 10 µM UCPH-101, net AUC 0–15 min) was 3.7 ± 0.2 and the “Substrate pEC50 ± SEM (AUC = 0–120 min)” value ([1]; JumpIn-EAAT1-mGluR2, −dox, no inhibitor, net AUC 0–120 min) was 4.3 ± 0.1. For the same compound, the EC50 [2] was 501 µM, the EC50 ([3]; JumpIn-EAAT2, +dox) was 251 µM and the EC50 ([3]; JumpIn-EAAT2, −dox) was 158 µM. For the same compound, the “Response in dox-induced vs non-induced cells” value [4] was “significantly higher” and the “Substrate pEC50 ± SEM” value [5] was 4.0 ± 0.2 ^b.
